Laboratory results published in US20250325552A1, “SUBSTITUTED THIADIAZOLYL DERIVATIVES AS DNA POLYMERASE THETA INHIBITORS” (IDEAYA Biosciences, Inc., priority 2020, published 2025).

biological target: Polθ theta (1-899) (hPolQ) (Homo sapiens (Human), UniProt O75417); experiment: Biological Assay 1: Polθ ATPase activity, NADH oxidation-coupled enzymatic assay (10 nM enzyme, 30 min); format: biochemical; conditions: Polθ (1-899) 10 nM, 100 μM ATP, 300 nM dT50 ssDNA; Examples 1 to 268; read-out: ATPase NADH coupling:Standard Screening:hPolQ IC50
Sequence (O75417 1-899): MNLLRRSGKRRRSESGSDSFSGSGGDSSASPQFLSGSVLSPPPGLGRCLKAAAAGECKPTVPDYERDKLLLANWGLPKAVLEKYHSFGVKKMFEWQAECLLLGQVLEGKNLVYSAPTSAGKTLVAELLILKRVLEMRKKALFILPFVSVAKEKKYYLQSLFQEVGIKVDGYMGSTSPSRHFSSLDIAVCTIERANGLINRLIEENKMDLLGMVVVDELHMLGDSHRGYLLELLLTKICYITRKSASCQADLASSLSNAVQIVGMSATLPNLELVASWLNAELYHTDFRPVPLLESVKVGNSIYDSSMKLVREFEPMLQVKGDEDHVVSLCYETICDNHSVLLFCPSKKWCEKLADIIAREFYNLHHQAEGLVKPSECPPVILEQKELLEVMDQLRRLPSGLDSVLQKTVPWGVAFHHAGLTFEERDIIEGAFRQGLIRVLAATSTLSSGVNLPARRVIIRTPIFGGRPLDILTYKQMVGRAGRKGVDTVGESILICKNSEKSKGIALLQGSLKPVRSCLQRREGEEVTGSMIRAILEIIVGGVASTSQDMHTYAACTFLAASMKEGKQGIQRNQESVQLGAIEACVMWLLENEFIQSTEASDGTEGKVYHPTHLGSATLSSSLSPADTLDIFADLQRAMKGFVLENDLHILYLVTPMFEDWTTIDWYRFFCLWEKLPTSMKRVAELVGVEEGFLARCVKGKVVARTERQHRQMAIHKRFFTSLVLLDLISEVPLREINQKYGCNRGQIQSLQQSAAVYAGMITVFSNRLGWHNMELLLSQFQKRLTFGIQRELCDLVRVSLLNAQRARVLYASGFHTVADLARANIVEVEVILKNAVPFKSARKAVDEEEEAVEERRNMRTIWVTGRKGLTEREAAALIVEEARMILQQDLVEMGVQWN
Experimental: The ability of the compounds of Formula (I), (II), (III), (IV), or Table 1 (Examples 1 to Example 268) to inhibit ATPase activity of Polθ theta (1-899) was determined using the assay described below.
Polθ Theta ATPase activity was determined by measuring the rate of ATP turn over in a NADH oxidation-coupled enzymatic assay. 10-point dilution series of compounds were used in a 384 well format for the inhibition assays. Polθ theta (1-899) (10 nM) in assay buffer (20 mM Tris HCl (pH 7.80), 80 mM KCl, 10 mM MgCl2, 1 mM DTT, 0.01% BSA, 0.01% Tween, 5% glycerol) was transferred to the test wells (20 μL), except the low control wells (20 μL of assay buffer was added to the low control wells). The plate was then incubated at room temperature for 15 min. An equal volume (20 μL) of 100 μM ATP, 300 nM dT50 (single-stranded DNA (ssDNA) containing 50 thymine bases), 300 μM NADH, 6 mM PEP, 10 U/mL lactate dehydrogenase and U/mL pyruvate kinase in assay buffer was added to all the test wells. The plate was then centrifuged at 1000 rpm for 1 min. The reaction was monitored for 30 min by measuring absorbance (λ=340 nm) in a Tecan Spark multimode plate reader every minute. The high control (DMSO with enzyme) with low absorbance intensity represents no inhibition of ATPase reaction while the low control (DMSO with buffer) with high absorbance intensity represents full inhibition of ATPase activity. Slope of the reaction progress curves were used to calculate the rate of ATP hydrolysis. The rates were used to determine the percent inhibition using a four-parameter inhibition model to generate IC50, Hill slope and max inhibition.

Compound | IC50
COc1cnc(Cl)cc1-c1cc(C)ncc1C(=O)Nc1nnc(OCC2CCN(C)CC2)s1 [Example 178, 2′-chloro-5′-methoxy-6-methyl-N-(5-((1-methylpiperidin-4-yl)methoxy)-1,3,4-thiadiazol-2-yl)-(4,4′-bipyridine)-3-carboxamide] | 200 to 500 nM
COc1ccc(Cl)cc1-c1cnncc1C(=O)Nc1nnc(OCC23CCC(O)(CC2)CC3)s1 [Example 121, 5-(5-chloro-2-methoxyphenyl)-N-(5-((4-hydroxybicyclo(2.2.2)octan-1-yl)methoxy)-1,3,4-thiadiazol-2-yl)pyridazine-4-carboxamide] | 200 to 500 nM
COc1ccccc1-c1nc2cccnc2cc1C(=O)Nc1nnc(OCc2ccc(Cl)cn2)s1 [Example 9, N-(5-((5-chloropyridin-2-yl)methoxy)-1,3,4-thiadiazol-2-yl)-2-(2-methoxyphenyl)-1,5-naphthyridine-3-carboxamide] | 1000 to 10000 nM
COc1cccc(F)c1-c1cc(C)ncc1C(=O)Nc1nnc(OCc2ccc(OC(F)F)cn2)s1 [Example 49, N-(5-((5-(difluoromethoxy)pyridin-2-yl)methoxy)-1,3,4-thiadiazol-2-yl)-4-(2-fluoro-6-methoxyphenyl)-6-methylnicotinamide] | ≤ 200 nM
COc1cccc(F)c1-c1cc(C)ncc1C(=O)Nc1nnc(OCc2ccc(C3(C)COC3)cn2)s1 [Example 140, 4-(2-fluoro-6-methoxyphenyl)-6-methyl-N-(5-((5-(3-methyloxetan-3-yl)pyridin-2-yl)methoxy)-1,3,4-thiadiazol-2-yl)nicotinamide] | ≤ 200 nM
COc1cccc(F)c1-c1cc(C)ncc1C(=O)Nc1nnc(OCc2ccc(C(C)(C)O)nc2)s1 [Example 109, 4-(2-fluoro-6-methoxyphenyl)-N-(5-((6-(2-hydroxypropan-2-yl)pyridin-3-yl)methoxy)-1,3,4-thiadiazol-2-yl)-6-methylpyridine-3-carboxamide] | ≤ 200 nM
COc1ccc(C)cc1-c1cc(C)ncc1C(=O)Nc1nnc(OCc2ccc(Cl)cn2)s1 [Example 44, N-(5-((5-chloropyridin-2-yl)methoxy)-1,3,4-thiadiazol-2-yl)-4-(2-methoxy-5-methylphenyl)-6-methylpyridine-3-carboxamide] | ≤ 200 nM
Cc1cc(-c2cc(Cl)ncc2OC(F)F)c(C(=O)Nc2nnc(OC[C@H]3CC[C@H](O)CC3)s2)cn1 [Example 243, 2′-chloro-5′-(difluoromethoxy)-N-(5-(((1r,4r)-4-hydroxycyclohexyl)methoxy)-1,3,4-thiadiazol-2-yl)-6-methyl-(4,4′-bipyridine)-3-carboxamide] | ≤ 200 nM
COc1cnc(C)cc1-c1cc(C)ncc1C(=O)Nc1nnc(OCc2ccc(C(C)(C)O)cn2)s1 [Example 76, N-(5-((5-(2-hydroxypropan-2-yl)pyridin-2-yl)methoxy)-1,3,4-thiadiazol-2-yl)-5′-methoxy-2′,6-dimethyl-(4,4′-bipyridine)-3-carboxamide] | ≤ 200 nM
COc1cnc(Cl)cc1-c1cc(C)ncc1C(=O)Nc1nnc(OCC2CNC2)s1 [Example 173, N-(5-(azetidin-3-ylmethoxy)-1,3,4-thiadiazol-2-yl)-2′-chloro-5′-methoxy-6-methyl-(4,4′-bipyridine)-3-carboxamide] | 1000 to 10000 nM
COc1cnc(Cl)cc1-c1cc(C)ncc1C(=O)Nc1nnc(OC[C@H]2CC[C@H](F)CC2)s1 [Example 197, 2′-chloro-N-(5-(((1r,4r)-4-fluorocyclohexyl)methoxy)-1,3,4-thiadiazol-2-yl)-5′-methoxy-6-methyl-(4,4′-bipyridine)-3-carboxamide] | ≤ 200 nM
COc1cnc(Cl)cc1-c1cc(C)ncc1C(=O)Nc1nnc(OC[C@H]2COCC(C)(C)O2)s1 (single isomer, unassigned) [Example 221] | ≤ 200 nM
COc1cnc(Cl)c(F)c1-c1cc(C)ncc1C(=O)Nc1nnc(OC[C@H]2COCCO2)s1 [Example 240, N-(5-(((R)-1,4-dioxan-2-yl)methoxy)-1,3,4-thiadiazol-2-yl)-2′-chloro-3′-fluoro-5′-methoxy-6-methyl-(4,4′-bipyridine)-3-carboxamide] | ≤ 200 nM
COc1cnc(Cl)cc1-c1cc(C)ncc1C(=O)Nc1nnc(OCC23CC(C(C)(C)O)(C2)C3)s1 [Example 143, 2′-chloro-N-(5-((3-(2-hydroxypropan-2-yl)bicyclo(1.1.1)pentan-1-yl)methoxy)-1,3,4-thiadiazol-2-yl)-5′-methoxy-6-methyl-(4,4′-bipyridine)-3-carboxamide] | ≤ 200 nM
COc1cnc(Cl)cc1-c1cc(C)ncc1C(=O)Nc1nnc(OCC2(C#N)CC2)s1 [Example 205, 2′-chloro-N-(5-((1-cyanocyclopropyl)methoxy)-1,3,4-thiadiazol-2-yl)-5′-methoxy-6-methyl-(4,4′-bipyridine)-3-carboxamide] | ≤ 200 nM
COc1cccc(F)c1-c1cc(C)ncc1C(=O)Nc1nnc(OCC2CCS(=O)(=O)CC2)s1 [Example 158, N-(5-((1,1-dioxidotetrahydro-2H-thiopyran-4-yl)methoxy)-1,3,4-thiadiazol-2-yl)-4-(2-fluoro-6-methoxyphenyl)-6-methylnicotinamide] | ≤ 200 nM
COc1cnc(Cl)cc1-c1cc(C)ncc1C(=O)Nc1nnc(OC[C@@H]2CC[C@H](O)C2)s1 (single isomer, unassigned) [Example 211] | ≤ 200 nM

The remaining lines, values ahead:

IC50 | Compound
≤ 200 nM | COc1cccc(F)c1-c1cc(C)ncc1C(=O)Nc1nnc(OCc2ccc(C3(O)CC3)cn2)s1 [Example 48, 4-(2-fluoro-6-methoxyphenyl)-N-(5-((5-(1-hydroxycyclopropyl)pyridin-2-yl)methoxy)-1,3,4-thiadiazol-2-yl)-6-methylnicotinamide]
≤ 200 nM | COc1cnc(Cl)cc1-c1cc(C)ncc1C(=O)Nc1nnc(OC[C@]2(F)CCOC2)s1 (single isomer, unassigned) [Example 264]
≤ 200 nM | COc1cnc(Cl)cc1-c1cc(C)ncc1C(=O)Nc1nnc(OC[C@@H]2COC3(CCC3)C2)s1 (single isomer, unassigned) [Example 226]
≤ 200 nM | COc1cnc(Cl)cc1-c1cc(C)ncc1C(=O)Nc1nnc(OCc2ccc(Cl)cn2)s1 [Example 8, 2′-chloro-N-(5-((5-chloropyridin-2-yl)methoxy)-1,3,4-thiadiazol-2-yl)-5′-methoxy-6-methyl-[4,4′-bipyridine]-3-carboxamide]
≤ 200 nM | COc1cnc(Cl)cc1-c1cc(C)ncc1C(=O)Nc1nnc(OC[C@H]2C[C@@H]2F)s1 (stereo in doubt) [Example 207, 2′-chloro-N-(5-(((1R,2S)-2-fluorocyclopropyl)methoxy)-1,3,4-thiadiazol-2-yl)-5′-methoxy-6-methyl-(4,4′-bipyridine)-3-carboxamide]
≤ 200 nM | COc1cnc(Cl)cc1-c1cc(C)ncc1C(=O)Nc1nnc(OCC2CCOC2)s1 (stereo in doubt) [Example 171, (S)-2′-chloro-5′-methoxy-6-methyl-N-(5-((tetrahydrofuran-3-yl)methoxy)-1,3,4-thiadiazol-2-yl)-(4,4′-bipyridine)-3-carboxamide]
≤ 200 nM | COc1cnc(Cl)cc1-c1cc(C)ncc1C(=O)Nc1nnc(OCC2CCC(F)(F)CC2)s1 [Example 153, 2′-chloro-N-(5-((4,4-difluorocyclohexyl)methoxy)-1,3,4-thiadiazol-2-yl)-5′-methoxy-6-methyl-(4,4′-bipyridine)-3-carboxamide]
≤ 200 nM | COc1cnc(Cl)cc1-c1cc(C)ncc1C(=O)Nc1nnc(OC[C@@H]2CO[C@@H](CO)CO2)s1 (racemic) [Example 238, rel-2′-chloro-N-(5-(((2s,5s)-5-(hydroxymethyl)-1,4-dioxan-2-yl)methoxy)-1,3,4-thiadiazol-2-yl)-5′-methoxy-6-methyl-(4,4′-bipyridine)-3-carboxamide]
≤ 200 nM | COc1ccc(F)cc1-c1cc(C)ncc1C(=O)Nc1nnc(OCc2ccc(C(C)(C)O)cn2)s1 [Example 63, 4-(5-fluoro-2-methoxyphenyl)-N-(5-((5-(2-hydroxypropan-2-yl)pyridin-2-yl)methoxy)-1,3,4-thiadiazol-2-yl)-6-methylnicotinamide]
≤ 200 nM | COc1cnc(C)c(F)c1-c1cc(C)ncc1C(=O)Nc1nnc(OC[C@H]2CC[C@H](O)CC2)s1 [Example 212, 3′-fluoro-N-(5-(((1r,4r)-4-hydroxycyclohexyl)methoxy)-1,3,4-thiadiazol-2-yl)-5′-methoxy-2′,6-dimethyl-(4,4′-bipyridine)-3-carboxamide]
≤ 200 nM | COc1cccc(F)c1-c1cnncc1C(=O)Nc1nnc(OCc2ccc(Cl)cn2)s1 [Example 64, N-(5-((5-chloropyridin-2-yl)methoxy)-1,3,4-thiadiazol-2-yl)-5-(2-fluoro-6-methoxyphenyl)pyridazine-4-carboxamide]
≤ 200 nM | COc1cnc(Cl)cc1-c1cc(C)ncc1C(=O)Nc1nnc(OC[C@H]2CCO[C@H]2C)s1 (single isomer, unassigned) [Example 181]
